Assay results as given in US20210161999A1, “COMPOSITIONS AND METHODS RELATED TO OVERCOMING INNATE IMMUNE BARRIERS TO CANCER IMMUNOTHERAPY” (Health Research, Inc., priority 2018, published 2021).
“Also recorded” adds a separate entry of the source.

Legend:
[1] = tested on: PMN suppressor phenotype (suppression of anti-CD3/CD28-stimulated T cell proliferation); assay: Coculture of PMN with ascites supernatants and anti-CD3/CD28-stimulated T cells; T cell proliferation by [3H] thymidine incorporation; assay type: cell-based, human
Procedure: (§1) Freshly isolated T cells (1e5) were stimulated with anti-CD3/CD28 Dynabeads (2.5 μl; Thermo Fisher Scientific) and cocultured with autologous PMN (1:1) and ascites supernatants (50% final well volume) in an incubator at 37° C., 5% CO2. After 72 h, [^3H] thymidine (1 μCi per well) was added and allowed to incorporate for 16-18 h. Cells were harvested onto a Filtermat and counted on a Beta counter. Results are expressed as net cpm [calculated by subtracting the average cpm of unstimulated T cells from the average cpm of stimulated T cells].
Where indicated, T cells, PMN, and ascites supernatants underwent various pretreatments. Where indicated, T cells were pretreated for lh with neutralizing antibody against ICAM-I (1-10 μg), IgG1 isotype (1-10 μg), or media (RPMI 1640, 5-10% heat-inactivated FBS, HEPES, sodium pyruvate, non-essential amino acids, and penicillin-streptomycin).
Where indicated, PMN were pretreated for lh with neutralizing antibody against CD11b (1-10 μg), TGF-beta receptor 1 (1-10 μg) or IgG1 isotype (1-10 μg); thapsigargin (THG, 0.5-2 μM), diphenyleneiodonium (DPI, 1-25 μM), N-Formylmethionine-leucyl-phenylalanine (fMLF, 1-100 nM), brefeldin-A (1-10 μg/mL), ER export inhibitor 1 (Exol, 20-75 μM), CI-amidine (10-20 μM), SNARE decoys: TAT-SNAP23 (0.6-0.9 μg/mL), TAT-SYN4 (0.6-0.9 μg/mL), TAT-GST (0.6-0.9 μg/mL) (produced as described in the laboratory of Dr. Kenneth McLeish), puromycin and actinomycin-D (1-5 μg/mL), or with media.
Where indicated, ascites supernatants were pretreated with heat (56° C., lh) to denature heat-labile constituents or proteinase-K (100 μM, 37° C., 12 h) to degrade proteins. Two formulations of compstatin, a peptide C3 inhibitor, were used: CS (250 μM, 30° C., 2 h, Tocris) and Cp40 (1.25-20 μM, 30° C., 2 h), as well as a scramble peptide. In separate studies, ascites supernatants were ultra-centrifuged (100,000g, 4° C., 1.5 h) to separate the membrane-rich (MR-ASC) and membrane-depleted (MD-ASC) fractions. In others, ascites supernatants were pretreated for lh with neutralizing antibody against C5 (0.5-1.0 μg, A217; Quidel, San Diego, Calif.) or C7 (0.5-1.0 μg, A221; Quidel) or IgG1 isotype (0.5-1.0 μg), or with OmCI (0.6-1.2 μM), a peptide C5 inhibitor derived from the saliva of Ornithodoros moubata (35, 36).

[2] = tested on: PMN suppressor phenotype induced by malignant effusions; assay: Coculture of PMN and stimulated T cells with malignant effusions (pleural fluid, ascites) of various metastatic cancers; T cell proliferation; assay type: cell-based, human; conditions: Cp40-treated malignant pleural fluid/ascites from various metastatic cancers (n=7)
Excerpt: We analyzed whether the PMN suppressor phenotype induced by EOC ascites would also occur following PMN exposure to other malignant effusions. We observed a similar PMN suppressor phenotype when PMN and anti-CD3/CD28-stimulated T cells were cocultured with malignant pleural and ascites supernatants from patients with a number of metastatic cancers (18/20 samples induced a PMN suppressor or intermediate suppressor phenotype). Using samples that met the suppressor definition (Table 3), the PMN suppressor phenotype induced by malignant pleural and ascites was also abrogated by Cp40-treatment (FIG. 3K).
Patients and Specimens. Participants included healthy donors, control female patients with a benign adnexal mass undergoing resection surgery, and cancer patients with malignant effusions. Healthy donors (n=4) were Caucasian, aged 26-51, and equally divided between sexes. […]
as §1, with “After 72 h, [^3H] thymidine (1 μCi per well) was added and allowed to incorporate for 16-18 h.” left out, “cells]. […]” for “cells].”

[3] = tested on: PMN; assay: PMN viability (PI neg, Annexin-V neg) after exposure to treated ascites; conditions: 24 h exposure to Cp40-treated ascites
Procedure: (§2) Where indicated, cells were pelleted for immunophenotyping and supernatants were saved for ELISA at time points throughout coculture. Viability was assessed by staining with Annexin V and/or PI (Dead Cell Apoptosis Kit, V13241, Thermo Fisher Scientific), following the manufacturer's protocols. For surface phenotyping and intracellular staining, cells were stained in buffer (DPBS, 1% BSA, 2 mM EDTA) and Cytofix/Cytoperm buffer kit (BD Biosciences), respectively, following the manufacturer's protocols. Data were analyzed using FCS Express 6.

[4] = as above; conditions: human, PMN (neutrophils) exposed to peptide-treated ascites
Procedure: as §2

[5] = tested on: iC3b/C3b deposition on PMN; assay: Deposition of iC3b/C3b on PMN after 1.5 h coculture (clone 3E7/C3b); assay type: cell-based, human; conditions: PMN and T cells cocultured in treated ASC for 1.5 h (n=3 ASC)
Procedure: FIG. 16. Complement activation in ASC results in C3b/iC3b deposition on PMN and mediates the PMN suppressor phenotype via the AP and classical pathways. A) Activation of complement in ASC principally occurs via the AP and classical pathways, though inter-patient variability was observed. ASC were assessed for complement activity by WIESLAB ELISA kits that detect formation of C5b-9. Percent (%) activity is in relation to the provided positive control (n=38 ASC, **, p=0.0015; ****, p<0.0001). […] C) PMN and T cells were cocultured in media, ASC, Cp40-ASC, or SCR-ASC for 1.5 h. Deposition of iC3b/C3b (clone 3E7/C3b recognizes both C3b and iC3b) on PMN was increased with ASC versus media, while iC3b/C3b deposition on T cells was unaffected by ASC (not shown). iC3b/C3b binding to PMN was decreased by Cp40-ASC, and unaffected by SCR-ASC (n=3 ASC).

## CC[C@H](C)[C@H](NC(=O)[C@H](N)Cc1ccc(O)cc1)C(=O)N[C@H]1CSSC[C@@H](C(=O)N(C)[C@H](C(N)=O)[C@@H](C)CC)NC(=O)[C@H](CCCNC(=N)N)NC(=O)[C@H](Cc2c[nH]cn2)NC(=O)[C@H](C)NC(=O)CN(C)C(=O)[C@H](Cc2c[nH]c3ccccc23)NC(=O)[C@H](CC(=O)O)NC(=O)[C@H](CCC(N)=O)NC(=O)[C@H](Cc2cn(C)c3ccccc23)NC(=O)[C@H](C(C)C)NC1=O [Cp40]
[1]; added to ASC 2 h prior to coculture with PMN and T cells, CS 250 μM, Cp40 20 μM, scramble peptide 20 μM
  effect on PMN suppressor phenotype: completely abrogated the PMN suppressor phenotype; also recorded: fully abrogated the PMN suppressor phenotype; also recorded: completely abrogated the neutrophil suppressor phenotype
[1]; concentration-titration study, FIG. 15B
  Cp40 concentration sufficient to abrogate the PMN suppressor phenotype: 2.5-20 ∥M
[1]; titration study, ASC pretreated (n=3)
  Cp40 concentration sufficient to fully abrogate the PMN suppressor phenotype: 5 µM
[2]
  effect on PMN suppressor phenotype induced by malignant effusions: abrogated by Cp40-treatment in all of the tested samples
[3]
  neutrophil viability versus untreated or scramble peptide-treated ascites: similar
[4]
  viability at 24 h, 20 µM: 68 ± 8%
[5]
  iC3b/C3b binding to PMN: reduced; also recorded: decreased
